{"source": "patent US12691078B2", "about": "“Stable compositions of functional ingredients and methods of making the same” (Nulixir Inc., priority 2021, dated 2026)", "origin": "cited, not measured here"}
{"details": "reference solvents n-octanol and water; pH=7 unless stated otherwise; mostly given as approximate (~=)"}
{"molecule": "COc1cc2c(c(OC)c1OC)-c1c(cc3c(c1OC)OCO3)CC(C)C(C)C2", "note": "(single isomer, unassigned; (-)) [(−)-schisandrin B]", "logP": "~4"}
{"molecule": "COc1cc(/C=C/c2ccccc2)oc(=O)c1", "note": "[5,6-dehydrokawain]", "logP": "~2.9"}
{"molecule": "COC1=CC(=O)OC(/C=C/c2ccc(OC)cc2)C1", "note": "(stereo not drawn) [5,6-dihydroyangonin]", "logP": "~2.5"}
{"molecule": "CC1=C(CO)C(=O)O[C@@H]([C@@H](C)[C@H]2CC[C@H]3[C@@H]4C[C@H](Cl)[C@]5(O)[C@@H](O)C=CC(=O)[C@]5(C)[C@H]4CC[C@]23C)C1", "note": "[6a-chloro-5b-hydroxywithaferin A]", "logP": "~3.2"}
{"molecule": "COC1=CC(=O)O[C@@H](CCc2ccc3c(c2)OCO3)C1", "note": "[7,8-dihydromethysticin]", "logP": "~2.2"}
{"molecule": "COc1ccc(CCc2cc(OC)cc(=O)o2)cc1", "note": "[7,8-dihydroyangonin]", "logP": "~2.9"}
{"molecule": "COc1cc(/C=C\\c2ccc(OC)c(O)c2)oc(=O)c1", "note": "[11-hydroxyyangonin]", "logP": "~2.2"}
{"molecule": "COc1cc2c(c(OC)c1OC)-c1c(cc(OC)c(OC)c1OC)C[C@](C)(O)[C@@H](C)C2", "note": "[(+)-schisandrin]", "logP": "~5"}
{"molecule": "COc1cc2c(c(OC)c1OC)-c1c(cc(OC)c(OC)c1OC)C[C@H](C)[C@H](C)C2", "note": "[(−)-schisandrin A]", "logP": "~3.6"}
{"molecule": "COc1c2c(cc3c1-c1c(cc4c(c1OC)OCO4)C[C@H](C)[C@H](C)C3)OCO2", "note": "[(−)-schisandrin C]", "logP": "~3.5"}
{"molecule": "CC(C)=C[C@@H]1CO[C@]23C[C@]4(CO2)[C@H](CC[C@@H]2[C@@]5(C)CC[C@H](O[C@@H]6OC[C@H](O)[C@H](O[C@@H]7O[C@H](CO)[C@@H](O)[C@H](O)[C@H]7O)[C@H]6O[C@@H]6O[C@@H](CO)[C@H](O)[C@H]6O)C(C)(C)[C@@H]5CC[C@]24C)[C@H]3[C@@]1(C)O", "note": "[bacopasaponin C]", "logP": "~2"}
{"molecule": "CC(C)=C[C@H]1C[C@](C)(O)[C@@H]2[C@H]3CC[C@@H]4[C@@]5(C)CC[C@H](O[C@@H]6OC[C@H](O)[C@H](O[C@@H]7O[C@H](CO)[C@@H](O)[C@H](O)[C@H]7O)[C@H]6O[C@@H]6O[C@@H](CO)[C@H](O)[C@H]6O)C(C)(C)[C@@H]5CC[C@@]4(C)[C@@]34CO[C@@]2(C4)O1", "note": "[bacopaside X]", "logP": "~2.2"}
{"molecule": "CC(C)=C[C@H]1C[C@](C)(O)[C@H]2[C@H]3CC[C@@H]4[C@@]5(C)CC[C@H](O[C@@H]6O[C@H](CO)[C@@H](O)[C@H](O[C@@H]7O[C@H](CO)[C@@H](O)[C@H](O)[C@H]7O)[C@H]6O[C@@H]6O[C@@H](CO)[C@H](O)[C@H]6O)C(C)(C)[C@@H]5CC[C@@]4(C)[C@@]34CO[C@@]2(C4)O1", "note": "[bacoside A3]", "logP": "~2.1"}
{"molecule": "CC(C)=CCC[C@](C)(O[C@@H]1O[C@H](CO[C@@H]2O[C@H](CO)[C@@H](O)[C@H](O)[C@H]2O)[C@@H](O)[C@H](O)[C@H]1O)[C@H]1CC[C@]2(C)[C@@H]1[C@H](O)C[C@@H]1[C@@]3(C)CC[C@H](O[C@@H]4O[C@H](CO)[C@@H](O)[C@H](O)[C@H]4O[C@@H]4O[C@H](CO)[C@@H](O)[C@H](O)[C@H]4O)C(C)(C)[C@@H]3CC[C@]12C", "note": "[ginsenoside rb1]", "logP": "~−1"}
{"molecule": "CC(C)=CCC[C@](C)(O[C@@H]1O[C@H](CO)[C@@H](O)[C@H](O)[C@H]1O)[C@H]1CC[C@]2(C)[C@@H]1[C@H](O)C[C@@H]1[C@@]3(C)CC[C@H](O)C(C)(C)[C@@H]3[C@@H](O[C@@H]3O[C@H](CO)[C@@H](O)[C@H](O)[C@H]3O)C[C@]12C", "note": "[ginsenoside rg1]", "logP": "~0.8"}
{"molecule": "COc1ccc(C23C=CC(O)CC2N(C)CC3)cc1OC", "note": "(stereo not drawn) [mesembrenol]", "logP": "~2.4"}
{"molecule": "COc1ccc([C@@]23C=CC(=O)C[C@@H]2N(C)CC3)cc1OC", "note": "[mesembrenone]", "logP": "~1.3"}
{"molecule": "COc1ccc([C@@]23CCC(=O)C[C@@H]2N(C)CC3)cc1OC", "note": "[mesembrine]", "logP": "~1.5"}
{"molecule": "COc1nc2c(c(=O)n1C)n(C)c(=O)n2C", "note": "[methylliberine]", "logP": "~−0.083"}
{"molecule": "CC(=O)OC1C=CC(=O)N(C(=O)CCc2ccccc2)C1", "note": "(stereo not drawn) [pipermethystine]", "logP": "~1.8"}
{"molecule": "COc1cc([C@H]2Oc3cc(O)c4c(=O)c(O)c(-c5ccc(O)cc5)oc4c3O[C@@H]2CO)ccc1O", "note": "[rhodiolin]", "logP": "~2"}
{"molecule": "COc1cc2c(c(OC)c1OC)-c1c(cc(OC)c(OC)c1OC)C[C@](C)(O)[C@@H](C)C2", "note": "[schisandrol A]", "logP": "~3.4"}
{"molecule": "N#C[C@@]1(O[C@@H]2O[C@H](CO)[C@@H](O)[C@H](O)[C@H]2O)C=C[C@@H](O)C1", "note": "[tetraphyllin B]", "logP": "~−2.5"}
{"molecule": "(R)-kawain", "logP": "~2.7"}
{"molecule": "bacopaside B", "logP": "~2.8"}
{"molecule": "hericerin", "logP": "~6.4"}
{"molecule": "herinacine A", "logP": "~2.5"}
{"molecule": "schisandroside C", "logP": "~1.6"}
{"molecule": "tortuosomine", "logP": "~3"}
{"details": "ethanol extraction of Golden Seal"}
{"molecule": "COc1ccc2cc3[n+](cc2c1OC)CCc1cc2c(cc1-3)OCO2", "note": "[berberine]", "solubility in ethanol as a function of water content": "decreases rapidly with water content"}
